These are literature values, as cited in patent publication US20240278494A1, “THREE-DIMENSIONAL ADDITIVE FABRICATION WITH SUPPORT FLUID” (GEORGIA TECH RESEARCH CORPORATION, priority 2021, published 2024).

Like-named read-outs stand apart in the source and are kept apart here.

The conditions of data set [1]: Table 2, resin additives.
For data set [2] the following is noted: for ρ: Table 2, resin additives; for Density: Table 1, acrylate monomers.
Assay in data set [3]: not given
The source holds these as a separate data set.

With `OCCCO` [1,3-Propanediol], the “γ (surface tension)” value in data set [1] is on record as 46.2 mN/m. Under “Table 2, resin additives”, the Viscosity is recorded as 52 cP. Besides, the ρ in data set [2] is given as 1.0597 g/mL.

Take `C=CC(=O)OCCCC` [BA, Butyl Acrylate]: in data set [1], the “γ (surface tension)” value is 20 mN/m. Besides, the Viscosity (Table 2, resin additives) is 0.92 cP. In data set [2], the ρ was 0.9 g/mL.

On to `C1CCC2CCCCC2C1` (centres unmarked) [Decalin, Decahydronaphthalene], for which the Viscosity (Table 2, resin additives) is recorded as 1.788 cP. Besides, the ρ in data set [2] is recorded as 0.896 g/mL.

`C=CC(=O)OCC(CC)CCCC` (centres unmarked) [EHA, 2-Ethylhexyl acrylate]: the “γ (surface tension)” value in data set [1] is recorded as 26 mN/m. Further, where the note is “Table 2, resin additives”, the Viscosity is 1.7 cP. In addition, the ρ in data set [2] is 0.885 g/mL.

Take `C=CC(=O)OCCCCCCOC(=O)C=C` [HDDA, 1,6-Hexanediol diacrylate]: the Water solubility in data set [3] (Table 1, acrylate monomers) was 100 µg/mL. Moreover, the Viscosity (Table 1, acrylate monomers) was 9 cP. Moreover, in data set [2], the Density is reported as 1.02 g/mL.

Turning to `C=CC(=O)OC` [MA, Methyl Acrylate], in data set [3] (Table 2, resin additives), the Water solubility is 50000 µg/mL. The Viscosity (Table 2, resin additives) was 0.6 cP. The ρ in data set [2] is on record as 0.95 g/mL.

For the compound `C=C(C)C(=O)OC` [MMA, Methyl Methacrylate], in data set [1], the “γ (surface tension)” value is recorded as 31.4 mN/m. The Viscosity (Table 2, resin additives) is recorded as 0.6 cP. In data set [2], the ρ is on record as 0.94 g/mL.

Take `CCCCCCCC/C=C\CCCCCCCC(=O)O` [OA, Oleic Acid]: the “γ (surface tension)” value in data set [1] is reported as 31.92 mN/m. For the same compound, the Water solubility in data set [3] (Table 2, resin additives) was under 100 µg/mL. Moreover, the Viscosity (Table 2, resin additives) is on record as 27.64 cP. The ρ in data set [2] was 0.895 g/mL.

Consider `COCC(C)OC(C)=O` (centres unmarked) [PGMEA, Propylene glycol methyl ether acetate], for which the “γ (surface tension)” value in data set [1] is reported as 26.9 mN/m. In addition, the Water solubility in data set [3] (Table 2, resin additives) was 19800 µg/mL. For the same compound, the Viscosity (Table 2, resin additives) is listed as 0.8 cP. In addition, in data set [2], the ρ is on record as 0.962 g/mL.

With `C=C(C)C(=O)OCCOCCOCCOC(=O)C(=C)C` [TEGDMA, Triethylene glycol dimethacrylate], in data set [3] (Table 1, acrylate monomers), the Water solubility was 2410 µg/mL. The Viscosity (Table 1, acrylate monomers) was 50 cP. Moreover, the Density in data set [2] is recorded as 1.072 g/mL.

Regarding `CCCCOC(C)=O` [n-Butyl Acetate], in data set [1], the “γ (surface tension)” value was 25.3 mN/m. For the same compound, the Water solubility in data set [3] (Table 2, resin additives) is 680 µg/mL. The Viscosity (Table 2, resin additives) was 1.1002 cP. The ρ in data set [2] is 0.8825 g/mL.

As for Dimethylbenzene [Xylene], in data set [1], the “γ (surface tension)” value is 28 mN/m. In addition, the Water solubility in data set [3] (Table 2, resin additives) was under 100 µg/mL. The Viscosity (Table 2, resin additives) was 0.812 cP. In data set [2], the ρ is reported as 0.865 g/mL.

As to Urethane dimethacrylate [UDMA], the Viscosity (Table 1, acrylate monomers) is 6.75 cP. The Density in data set [2] is 1.129 g/mL.
